{"source": "patent US8481678B2", "about": "“Peptide-based tooth whitening reagents” (E I du Pont de Nemours and Company, priority 2009, dated 2013)", "note": "Where no end group is shown, it is not given here. The star is where a group is joined. Biotin = O=C1N[C@H]2[C@H](CS[C@H]2CCCCC(=O)*)N1", "data": [{"test_system": "not given", "test": "not given", "conditions": "20 μM biotinylated peptide; mean of at least three replicates; no-peptide control 0.066", "from_the_text": "Enzyme-linked immunosorbent assay (ELISA) was used to evaluate the cellulose acetate coated iron oxide particle-binding affinity of the biopanning selected peptide candidates (Example 6; biotinylated peptides phage ID: CA-1 to CA-4). The identified peptides were synthesized using a standard solid-phase synthesis method (see U.S. patent application Ser. No. 11/251/715). All peptides were modified to contain a biotinylated lysine residue at the C-terminus of the amino acid binding sequence for detection purposes (Table 6).\nThe cellulose acetate-coated iron oxide particles were dispersed in water at 2.5 mg per mL. […] The particle dispersion (1 mL each) was then centrifuged for 2 min at 5000 rpm, the aqueous was removed by aspirating it out of each tube. The tubes were incubated in SUPERBLOCK® blocking buffer (Pierce Chemical Company, Rockford, Ill.; Prod. #37535) for 1 hour at room temperature (˜22° C.), followed by 3 washes with TBST (TBS in 0.05% TWEEN® 20). Then tubes were then rinsed 3 times with wash buffer consisting of TBST-0.05% using the same centrifugation and aspiration methods. Peptide binding buffer consisting of 20 μM biotinylated peptides in TBST and 1 mg/mL BSA was added to the particles and incubated for 1 hour at room temperature (˜22° C.), followed by 6 TBST washes. Then, the streptavidin-alkaline phosphatase (AP) conjugate (Pierce Chemical Co., Rockford, Ill.) was added to each well at standard concentration and incubated for 1 hour at room temperature, followed by 6 times of washes with TBST. All particles were then transferred to new tubes and then the color development and the absorbance measurements were performed following the manufacturer's standard protocols.", "values": [{"substance": "DTIHPNKMKSPSSPL-K-biotin-NH2 [CA-2]", "O.D. at 405 nm": 0.207}, {"substance": "NGNNHTDIPNRSSYTGGSFA-K-biotin-NH2 [CA-3]", "O.D. at 405 nm": 0.279}, {"substance": "ATTPPSGKAAAHSAARQKGN-K-biotin-NH2 [CA-1]", "O.D. at 405 nm": 0.269}, {"substance": "SDETGPQIPHRRPTW-K-biotin-NH2 [CA-4]", "O.D. at 405 nm": 0.141}]}, {"test_system": "not listed separately", "test": "Phage ELISA, polished enamel-binding assay", "set-up": "species or system bovine", "conditions": "phage ELISA on polished enamel, over 10^10 pfu phage; no-phage control 0.112", "method": "A total of 11 selected phage candidates (Example 3) were used in a phage ELISA experiment. Purified phage lysates were used for binding to the enamel blocks using an anti-M13 phage antibody conjugated to horseradish-peroxidase, followed by the addition of chromogenic agent TMB, obtained from Pierce Biotechnology (Rockford, Ill.). The plates were read at A450 nm.\nFor each phage candidate to be tested, the polished and unpolished enamel blocks were incubated for 1 h at room temperature with 200 μL of blocking buffer, consisting of 2% non-fat dry milk (Schleicher & Schuell, Inc.) in TBS. […] The tube was rinsed 6 times with wash buffer consisting of TBST-0.05%. The wells were filled with 200 μL of TBST-0.5% containing 1 mg/mL BSA and then 10 μL (over 10^10 pfu) of purified phage stock was added. The samples were incubated at room temperature for 60 min with slow shaking. The non-binding phage was removed by washing 6 times with TBST-0.5%. […] The conjugate solution was removed and was washed 6 times with TBST-0.5%. […] “BoEn P” means bovine polished enamel and BoEn means bovine enamel.", "values": [{"substance": "GYCLRGDEPAVCSG (Tooth-binding peptide) [BoEn P3]", "O.D. at 450 nm": 0.665}, {"substance": "THNMSHFPPSGHPKRTAT (Tooth-binding peptide) [BoEn P8]", "O.D. at 450 nm": 2.02}, {"substance": "EPPTRTRVNNHTVTVQAQQH (Tooth-binding peptide) [BoEn P2]", "O.D. at 450 nm": 0.641}, {"substance": "NFCETQLDLSVCTV (Tooth-binding peptide) [BoEn P5]", "O.D. at 450 nm": 0.797}, {"substance": "NTCQPTKNATPCSA (Tooth-binding peptide) [BoEn P6]", "O.D. at 450 nm": 0.83}]}, {"test_system": "pellicle-coated enamel substrates", "test": "not given", "conditions": "range of peptide concentrations, 2 h at 37° C., 4-MUP fluorescence; calculated from Scatchard plots", "from_the_text": "The pellicle-coated enamel substrates were removed from the wax backing and placed in well plates with the pellicle surface exposed as in Example 1. […] The blocking buffer was removed by aspirating the liquid out of each well. The tube was rinsed 2 times with wash buffer consisting of PBST. […] The non-binding peptide was removed by washing 6 times with PBST. […] The conjugate solution was removed and was washed 4 times with PBST.\nEach enamel substrate was removed from the well and washed again in a 15-mL test tube with 10 mL of PBST. Each enamel substrate was then mounted in a clean well plate with only the enamel surface exposed.", "units": {"MB50": "µM"}, "values": [{"substance": "SSRPHKNENIMQYNVNDRWHITPAK(Biotin) [DenP32-A]", "MB50": 25}, {"substance": "SSRPTTYHYKNIYQESYQQRNPAVK(Biotin) [DenP3-A]", "MB50": 28}]}, {"test_system": "pellicle-coated enamel substrates", "test": "not given", "conditions": "20 μM synthetic biotinylated peptide, 30 min at 37° C.; normalized to DenP03; three replicates; no peptide −0.001", "method": "A total of 20 synthetic peptides were manufactured using sequences obtained from Table 14. Peptides were obtained from Synbiosci (Livermore, Calif.) and included an additional SSRP sequence (SEQ ID NO: 151) at the N-terminus and biotin labeled lysine at the C-terminus.\nEnamel substrates were cut to approx. 7 mm squares and mounted on wax mounting for incubation in the mouth for 30 min to form a pellicle coated surface. The pellicle-coated enamel substrates were removed from the wax backing and placed in well plates with the pellicle surface exposed as in Example 1. Each pellicle-coated substrate was incubated for 1 h at room temperature (˜22° C.) with 1 mL of blocking buffer, consisting of 1 mg/mL BSA in PBST (Pierce BupH™ #28372 with 0.1% TWEEN® 20). The blocking buffer was removed by aspirating the liquid out of each well. The tube was rinsed 2 times with wash buffer consisting of PBST. The wells were filled with 500 μL of 20 μM peptide solution which was prepared by diluting in blocking buffer. The samples were incubated for 30 min with slow shaking at 37° C. The non-binding peptide was removed by washing 6 times with PBST. Then, 500 μL of horseradish peroxidase/streptavidin conjugate (Pierce #22127), diluted 1:2000 in PBST, was added and incubated for 1 h at room temperature. The conjugate solution was removed and was washed 4 times with PBST.\nEach enamel substrate was removed from the well and washed again in a 15-mL test tube with 10 mL of PBST. Each enamel substrate was then mounted in a clean well plate with only the enamel surface exposed. A 1:1 solution of TMB substrate and H2O2 (200 μL), obtained from Pierce Biotechnology (Rockford, Ill.) was added to each well and the color was allowed to develop for between 10 to 20 min, typically for 15 min, at room temperature (˜22° C.). Then, 100 μL of solution from each well was transferred to a 96-well reading plate containing stop solution (100 μL of 2 M H2SO4) in each well. The A450 was measured using a microplate spectrophotometer (Molecular Devices, Sunnyvale, Calif.). […] Each sequence was tested with three replicate enamel coated pellicle substrates.", "values": [{"substance": "SSRPHKNENIMQYNVNDRWHITPAK(Biotin) [DenP32-A]", "O.D. at 450 nm (normalized)": 1.135}, {"substance": "SSRPTTYHYKNIYQESYQQRNPAVK(Biotin) [DenP3-A]", "O.D. at 450 nm (normalized)": 1.000}]}]}
